Values of other authors in article PMC12483202, “Pharmacokinetic profile of oral firocoxib in the koala (Phascolarctos cinereus)” (PLOS One, 2025).
Where two headings read alike, the source gives them in different places.

Experiments:
[1] = cited from earlier work
elephant plasma proteins = tested on: elephant plasma proteins; set-up: method as in PMID 37428699, PMID 38453490; conditions: African and Asian elephants; rapid equilibrium dialysis; cited from earlier work
[2] = Horses (6), PO 0.1 mg/kg, ref [1] of S9 Table
[3] = Horses (12), IV 0.1 mg/kg, ref [3] of S9 Table
[4] = Horses (12), PO 0.1 mg/kg, ref [3] of S9 Table

Structure (SMILES): CC1(C)OC(=O)C(OCC2CC2)=C1c1ccc(S(C)(=O)=O)cc1 [firocoxib]
- Cmax [1, 2]: 58.0 ng/mL
- Tmax [1, 2]: 3.2 h
- t1/2 [1, 2]: 32.77 h
- Cmax [1, 3]: 210 ng/mL
- t1/2 [1, 3]: 34 h
- Cmax [1, 4]: 75 ng/mL
- Tmax [1, 4]: 3.9 h
- t1/2 [1, 4]: 30 h
- Absolute oral bioavailability ([1]; horses dosed at 0.1 mg/kg): 79%
- Cl ([1]; horses): 0.617 mL/min/kg
- Tmax (mean) ([1]; horses): 3.2 h
- Vd ([1]; horses): 1.7 L/kg
- plasma elimination half-life ([1]; horses): 32.8 h
- Cmax ([1]; horses, oral 0.1 mg/kg): 58 ng/mL
- binding to elephant plasma proteins (elephant plasma proteins): 45%
